US20220242846A1, “ISOINDOLINONE COMPOUNDS” (Monte Rosa Therapeutics AG, priority 2019, published 2022)
Like-named read-outs stand apart in the source and are kept apart here.

Tests used:
[1] = system: Human mammary epithelial cells (HMEC) engineered to express EGFP alone (non myc); assay: 3D spheroid assay, non myc-HMEC (CellTiterGlo3D viability); assay type: cell-based; details: 120 h, 3D spheroids, 5 days with compound, read-out: Code: EC50 value in the non myc-HMEC assay
Description: (§1) 3D Spheroid Experiments—HMEC
(§2) Human mammary epithelial cells (HMEC) were engineered to express either c-myc tagged with EGFP or EGFP alone (non myc) (analogous but distinct from Kessler J D et al, Science. 2012 Jan. 20; 335(6066):348-53. doi: 10.1126/science.1212728; Hsu T Y et al, Nature. 2015 Sep. 17; 525(7569):384-8. doi: 10.1038/nature14985). The engineered cells were seeded at 1000 (myc) or 4000 (non myc) cells/well in a 384 ultra-low attachment plate in a total volume of 40 µL, HMEC cell culture media (DMEM/F12+10% HI-FBS+15 mM HEPES+0.5 ug/ml Hydrocortisone+10 ug/ml Insulin+20 ng/ml EGF). Plates were spun at 1200 rpm for 5 minutes at room temperature to ensure that cells have gathered in the middle of the well and incubated at 37° C. for 48 hrs before firing with compounds. On Day 2 (48 h post seeding) cells were imaged (brightfield and EGFP fluorescence) using the Celigo imaging cytometer prior to firing compounds. For primary screens, compounds were added at three concentrations (1.25, 10 and 30 uM) in a volume of 120 nL using the ECHO acoustic dispenser and spun at 2000 rpm for 2 minutes at room temperature before incubating at 37° C. for 5 days. […] On Day 7, prior to measuring cell viability using CellTiterGlo3D, cells were imaged (brightfield and EGFP fluorescence) on the Celigo imaging cytometer. The CellTiterGlo3D reagent is added at 30uL/well and incubated at room temperature for 30mins After 30mins of incubation, luminescence readings were recorded using the Perkin Elmer EnVision reader.

[2] = molecular target: T1, Full length wild-type cereblon CRBN (Homo sapiens, UniProt Q96SW2); assay: Fluorescence polarization (FP) assay indicating cereblon binding; details: CRBN 80.0 nM, fluorescent probe 5 nM, FP measured after 12 hours; read-out: rFP IC50
T1 construct: Full length wild-type cereblon CRBN (80.0 nM, 10 μL) was incubated in assay buffer
T1 sequence (Q96SW2 whole entry): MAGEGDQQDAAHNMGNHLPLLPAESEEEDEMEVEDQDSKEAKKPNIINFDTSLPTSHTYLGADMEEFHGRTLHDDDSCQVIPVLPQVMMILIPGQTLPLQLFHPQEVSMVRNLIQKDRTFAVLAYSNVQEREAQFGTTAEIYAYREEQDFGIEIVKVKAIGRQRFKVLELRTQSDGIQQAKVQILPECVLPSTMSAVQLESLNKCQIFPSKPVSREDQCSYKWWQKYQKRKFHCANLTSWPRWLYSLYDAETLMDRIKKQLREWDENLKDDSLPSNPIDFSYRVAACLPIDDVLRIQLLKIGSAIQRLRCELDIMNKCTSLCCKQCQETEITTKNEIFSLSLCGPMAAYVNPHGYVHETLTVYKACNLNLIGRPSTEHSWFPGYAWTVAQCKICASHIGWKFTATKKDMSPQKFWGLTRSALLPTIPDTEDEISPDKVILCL
Summary of the method: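 Full-length wild-type human CRBN (80.0 nM) preincubated 30 min at room temperature with compound (12-point curve, 300-0.937 or 3000-9.3 nM) in HEPES pH 8.0, NaCl, TCEP, Tween 20. Thalidomide-based Cy5-type probe then added at 5 nM final; FP read after 12 h (ex 590, em 675 nm), normalized to DMSO, IC50 derived.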

GSPT1 = GSPT1 (Homo sapiens, UniProt P15170+Q96SW2); assay: Immunofluorescence assay for GSPT1 degradation in CAL-51 cells; assay type: cell-based; design: CAL-51 cells were purchased from DSMZ (cat. Number ACC302); endogenous in cells; host or cells: CAL-51 (DSMZ ACC302); details: compound treatment 6 hours
Chain of GSPT1 (P15170 whole entry): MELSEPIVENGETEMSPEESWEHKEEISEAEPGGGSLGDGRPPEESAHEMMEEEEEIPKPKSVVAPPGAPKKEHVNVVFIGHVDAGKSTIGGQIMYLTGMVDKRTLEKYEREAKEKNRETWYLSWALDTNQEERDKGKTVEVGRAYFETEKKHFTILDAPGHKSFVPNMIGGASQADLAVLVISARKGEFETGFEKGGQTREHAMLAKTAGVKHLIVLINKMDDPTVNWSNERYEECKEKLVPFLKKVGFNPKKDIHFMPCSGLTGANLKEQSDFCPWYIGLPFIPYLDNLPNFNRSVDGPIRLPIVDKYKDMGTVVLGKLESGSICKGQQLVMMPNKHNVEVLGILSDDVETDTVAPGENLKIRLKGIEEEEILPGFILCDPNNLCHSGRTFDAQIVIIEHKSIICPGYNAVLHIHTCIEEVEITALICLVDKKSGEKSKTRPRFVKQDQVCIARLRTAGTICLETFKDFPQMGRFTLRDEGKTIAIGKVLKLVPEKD
Chain of GSPT1 (Q96SW2 whole entry): as the sequence (Q96SW2 whole entry) above
Chain of GSPT1 (Q16531 2-1140 partner limits assumed): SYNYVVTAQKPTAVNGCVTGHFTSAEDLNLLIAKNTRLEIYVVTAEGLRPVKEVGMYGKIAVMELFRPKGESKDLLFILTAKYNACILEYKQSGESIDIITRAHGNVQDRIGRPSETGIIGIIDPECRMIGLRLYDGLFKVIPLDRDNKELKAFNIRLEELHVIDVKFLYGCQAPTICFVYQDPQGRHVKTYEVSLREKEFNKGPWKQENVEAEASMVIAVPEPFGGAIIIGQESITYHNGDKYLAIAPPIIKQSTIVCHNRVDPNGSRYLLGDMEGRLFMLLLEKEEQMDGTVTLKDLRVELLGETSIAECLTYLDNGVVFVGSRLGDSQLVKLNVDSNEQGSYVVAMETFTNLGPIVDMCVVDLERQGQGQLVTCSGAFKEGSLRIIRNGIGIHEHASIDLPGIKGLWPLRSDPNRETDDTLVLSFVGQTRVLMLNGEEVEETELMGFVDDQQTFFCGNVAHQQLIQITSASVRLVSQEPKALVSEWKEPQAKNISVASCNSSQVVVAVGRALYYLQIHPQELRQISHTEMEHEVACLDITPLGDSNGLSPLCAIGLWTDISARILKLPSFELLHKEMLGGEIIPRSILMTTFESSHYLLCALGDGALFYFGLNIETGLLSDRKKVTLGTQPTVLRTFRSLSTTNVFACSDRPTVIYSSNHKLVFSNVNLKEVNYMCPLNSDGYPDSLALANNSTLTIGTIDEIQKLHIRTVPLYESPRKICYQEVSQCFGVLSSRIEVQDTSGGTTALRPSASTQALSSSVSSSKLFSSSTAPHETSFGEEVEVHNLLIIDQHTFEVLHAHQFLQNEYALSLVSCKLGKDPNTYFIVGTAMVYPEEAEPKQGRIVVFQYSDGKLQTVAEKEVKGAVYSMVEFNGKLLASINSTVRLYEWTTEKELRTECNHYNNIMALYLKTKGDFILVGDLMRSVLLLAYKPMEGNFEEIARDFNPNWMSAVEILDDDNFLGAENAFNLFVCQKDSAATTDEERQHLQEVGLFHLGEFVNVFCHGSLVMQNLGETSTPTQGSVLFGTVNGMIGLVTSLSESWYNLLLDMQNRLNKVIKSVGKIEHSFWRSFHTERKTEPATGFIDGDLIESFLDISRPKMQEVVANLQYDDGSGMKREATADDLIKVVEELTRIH
Summary of the method: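 CAL-51 cells on fibronectin-coated plates treated 6 h with compound (30 μM to 0.1 nM); fixed, stained with anti-GSPT1/Alexa-488, phalloidin and DAPI, imaged by high-content microscopy. Mean GSPT1 intensity per cell normalized to controls; DC50 by non-linear regression.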

[3] = system: Human mammary epithelial cells (HMEC) engineered to express c-myc tagged with EGFP; assay: 3D spheroid assay, myc-HMEC (CellTiterGlo3D viability); assay type: cell-based
Description: as §1, §2

[4] = read-out: Code: activity for GSPT1 degradation (DC50)
[5] = Homo sapiens, HMEC, 120 h, 3D spheroids, 5 days with compound, read-out: Code: EC50 value in the myc-HMEC assay
[6] = myc-HMEC 3D spheroids (compounds with code D and E), 5 days, read-out: EC50

O=C1CCC(N2Cc3ccc(CNC(=O)Nc4ccc(Cl)c(Cl)c4)cc3C2=O)C(=O)N1 (centres unmarked) [Compound 46]
EC50 [1]: > 10000 nM | IC50 [2]: 1400 nM | DC50 (GSPT1; [4]): ≤ 100 nM | EC50 [3, 5]: 400 to 2000 nM | EC50 [3, 6]: 469 nM

O=C1CCC(N2Cc3ccc(CNC(=O)Nc4cccc(C(F)(F)F)c4)cc3C2=O)C(=O)N1 (centres unmarked) [Compound 47]
EC50 [1]: > 10000 nM | IC50 [2]: 1080 nM | DC50 (GSPT1; [4]): ≤ 100 nM | EC50 [3, 5]: 400 to 2000 nM | EC50 [3, 6]: 544 nM

O=C1CCC(N2Cc3ccc(CNC(=O)Nc4ccccc4F)cc3C2=O)C(=O)N1 (centres unmarked) [Compound 48]
EC50 [1]: > 10000 nM | IC50 [2]: 719 nM | DC50 (GSPT1; [4]): > 300 nM | EC50 [3, 5]: > 2000 nM

O=C1CCC(N2Cc3ccc(CNC(=O)Nc4ccccc4C(F)(F)F)cc3C2=O)C(=O)N1 (centres unmarked) [Compound 49]
EC50 [1]: > 10000 nM | IC50 [2]: 867 nM | DC50 (GSPT1; [4]): > 300 nM | EC50 [3, 5]: > 2000 nM

O=C1CCC(N2Cc3ccc(CNC(=O)Nc4cccc(Cl)c4Cl)cc3C2=O)C(=O)N1 (centres unmarked) [Compound 50]
EC50 [1]: > 10000 nM | IC50 [2]: 479 nM | DC50 (GSPT1; [4]): > 300 nM | EC50 [3, 5]: > 2000 nM

COc1ccc(CNC(=O)NCc2ccc3c(c2)C(=O)N(C2CCC(=O)NC2=O)C3)cc1 (centres unmarked) [Compound 52]
EC50 [1]: > 10000 nM | IC50 [2]: 477 nM | DC50 (GSPT1; [4]): > 300 nM | EC50 [3, 5]: > 2000 nM

COc1cccc(CNC(=O)NCc2ccc3c(c2)C(=O)N(C2CCC(=O)NC2=O)C3)c1 (centres unmarked) [Compound 53]
EC50 [1]: > 10000 nM | IC50 [2]: 364 nM | DC50 (GSPT1; [4]): > 300 nM | EC50 [3, 5]: > 2000 nM

C[C@@H](NC(=O)NCc1ccc2c(c1)C(=O)N(C1CCC(=O)NC1=O)C2)c1ccccc1 (some centres unmarked) [Compound 54]
EC50 [1]: > 10000 nM | IC50 [2]: 471 nM | DC50 (GSPT1; [4]): > 300 nM | EC50 [3, 5]: > 2000 nM

C[C@H](NC(=O)NCc1ccc2c(c1)C(=O)N(C1CCC(=O)NC1=O)C2)c1ccccc1 (some centres unmarked) [Compound 55]
EC50 [1]: > 10000 nM | IC50 [2]: 497 nM | DC50 (GSPT1; [4]): > 300 nM | EC50 [3, 5]: > 2000 nM

CC(C)(C)c1ccc(NC(=O)NCc2ccc3c(c2)C(=O)N(C2CCC(=O)NC2=O)C3)cc1 (centres unmarked) [Compound 56]
EC50 [1]: > 10000 nM | IC50 [2]: 434 nM | DC50 (GSPT1; [4]): ≤ 100 nM | EC50 [3, 5]: ≤ 400 nM | EC50 [3, 6]: 228 nM

CC(C)c1ccc(NC(=O)NCc2ccc3c(c2)C(=O)N(C2CCC(=O)NC2=O)C3)cc1 (centres unmarked) [Compound 57]
EC50 [1]: > 10000 nM | IC50 [2]: 373 nM | DC50 (GSPT1; [4]): > 300 nM | EC50 [3, 5]: > 2000 nM

O=C1CCC(N2Cc3ccc(CNC(=O)NCC4CCCCC4)cc3C2=O)C(=O)N1 (centres unmarked) [Compound 58]
EC50 [1]: > 10000 nM | IC50 [2]: 540 nM | DC50 (GSPT1; [4]): > 300 nM | EC50 [3, 5]: > 2000 nM

COc1ccc(NC(=O)NCc2ccc3c(c2)C(=O)N(C2CCC(=O)NC2=O)C3)cc1Cl (centres unmarked) [Compound 59]
EC50 [1]: > 10000 nM | IC50 [2]: 373 nM | DC50 (GSPT1; [4]): 100 to 300 nM | EC50 [3, 5]: 400 to 2000 nM | EC50 [3, 6]: 589 nM

Cc1cc(NC(=O)NCc2ccc3c(c2)C(=O)N(C2CCC(=O)NC2=O)C3)ccc1Cl (centres unmarked) [Compound 61]
EC50 [1]: > 10000 nM | IC50 [2]: 381 nM | DC50 (GSPT1; [4]): ≤ 100 nM | EC50 [3, 5]: ≤ 400 nM | EC50 [3, 6]: 92 nM

Cc1ccc(F)cc1NC(=O)NCc1ccc2c(c1)C(=O)N(C1CCC(=O)NC1=O)C2 (centres unmarked) [Compound 62]
EC50 [1]: > 10000 nM | IC50 [2]: 441 nM | DC50 (GSPT1; [4]): > 300 nM | EC50 [3, 5]: > 2000 nM

Cc1cccc(CNC(=O)NCc2ccc3c(c2)C(=O)N(C2CCC(=O)NC2=O)C3)c1 (centres unmarked) [Compound 63]
EC50 [1]: > 10000 nM | IC50 [2]: 492 nM | DC50 (GSPT1; [4]): > 300 nM | EC50 [3, 5]: > 2000 nM

O=C1CCC(N2Cc3ccc(CNC(=O)NCCc4ccc(Cl)cc4)cc3C2=O)C(=O)N1 (centres unmarked) [Compound 64]
EC50 [1]: > 10000 nM | IC50 [2]: 400 nM | DC50 (GSPT1; [4]): > 300 nM | EC50 [3, 5]: > 2000 nM

O=C1CCC(N2Cc3ccc(CNC(=O)NCc4ccc(C(F)(F)F)cc4)cc3C2=O)C(=O)N1 (centres unmarked) [Compound 65]
EC50 [1]: > 10000 nM | IC50 [2]: 637 nM | DC50 (GSPT1; [4]): > 300 nM | EC50 [3, 5]: > 2000 nM

O=C1CCC(N2Cc3ccc(CNC(=O)Nc4ccccc4-c4ccccc4)cc3C2=O)C(=O)N1 (centres unmarked) [Compound 66]
EC50 [1]: > 10000 nM | IC50 [2]: 449 nM | DC50 (GSPT1; [4]): > 300 nM | EC50 [3, 5]: > 2000 nM

Cc1ccc(F)c(NC(=O)NCc2ccc3c(c2)C(=O)N(C2CCC(=O)NC2=O)C3)c1 (centres unmarked) [Compound 67]
EC50 [1]: > 10000 nM | IC50 [2]: 284 nM | DC50 (GSPT1; [4]): > 300 nM | EC50 [3, 5]: > 2000 nM

Cc1ccc(NC(=O)NCc2ccc3c(c2)C(=O)N(C2CCC(=O)NC2=O)C3)cc1C (centres unmarked) [Compound 68]
EC50 [1]: > 10000 nM | IC50 [2]: 290 nM | DC50 (GSPT1; GSPT1 degradation, read-out: DC50): 200 nM | DC50 (GSPT1; [4]): 100 to 300 nM | EC50 [3, 5]: 400 to 2000 nM | EC50 [3, 6]: 458 nM

O=C1CCC(N2Cc3ccc(CNC(=O)Nc4cc(F)ccc4F)cc3C2=O)C(=O)N1 (centres unmarked) [Compound 69]
EC50 [1]: > 10000 nM | IC50 [2]: 381 nM | DC50 (GSPT1; [4]): > 300 nM | EC50 [3, 5]: > 2000 nM

O=C1CCC(N2Cc3ccc(CNC(=O)NCCCc4ccccc4)cc3C2=O)C(=O)N1 (centres unmarked) [Compound 70]
EC50 [1]: > 10000 nM | IC50 [2]: 253 nM | DC50 (GSPT1; [4]): > 300 nM | EC50 [3, 5]: > 2000 nM

O=C1CCC(N2Cc3ccc(CNC(=O)Nc4ccc(-c5ccccc5)cc4)cc3C2=O)C(=O)N1 (centres unmarked) [Compound 71]
EC50 [1]: > 10000 nM | IC50 [2]: 333 nM | DC50 (GSPT1; [4]): ≤ 100 nM | EC50 [3, 5]: ≤ 400 nM | EC50 [3, 6]: 39 nM

COCCNC(=O)NCc1ccc2c(c1)C(=O)N(C1CCC(=O)NC1=O)C2 (centres unmarked) [Compound 72]
EC50 [1]: > 10000 nM | IC50 [2]: 322 nM | DC50 (GSPT1; [4]): > 300 nM | EC50 [3, 5]: > 2000 nM

N#Cc1cccc(NC(=O)NCc2ccc3c(c2)C(=O)N(C2CCC(=O)NC2=O)C3)c1 (centres unmarked) [Compound 73]
EC50 [1]: > 10000 nM | IC50 [2]: 211 nM | DC50 (GSPT1; [4]): > 300 nM | EC50 [3, 5]: > 2000 nM

N#Cc1ccc(NC(=O)NCc2ccc3c(c2)C(=O)N(C2CCC(=O)NC2=O)C3)cc1 (centres unmarked) [Compound 74]
EC50 [1]: > 10000 nM | IC50 [2]: 196 nM | DC50 (GSPT1; [4]): > 300 nM | EC50 [3, 5]: > 2000 nM
